#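 How tested: cells in 96-well plates exposed to compound for 48 hours at five concentrations. Definition used: TGI = concentration required for complete inhibition of growth.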
# How the values were obtained:
# Assay in all cases: inhibition of tumour cell growth, NCI panel, 48 h
# 786-0 renal = test system: 786-0 renal
# A498 renal = test system: A498 renal
# A549 NSCLC = test system: A549 NSCLC
# ACHN renal = test system: ACHN renal
# CAKI-1 renal = test system: CAKI-1 renal
# CCRF-CEM leukemia = test system: CCRF-CEM leukemia
# COLO 205 colon = test system: COLO 205 colon
# DLD-1 colon = test system: DLD-1 colon
# DMS 114 small cell lung = test system: DMS 114 small cell lung
# DMS 273 small cell lung = test system: DMS 273 small cell lung
# EKVX NSCLC = test system: EKVX NSCLC
# HCC-2998 colon = test system: HCC-2998 colon
# HCT-116 colon = test system: HCT-116 colon
# HCT-15 colon = test system: HCT-15 colon
# HL-60(TB) leukemia = test system: HL-60(TB) leukemia
# HOP-62 NSCLC = test system: HOP-62 NSCLC
# HOP-92 NSCLC = test system: HOP-92 NSCLC
# K-562 leukemia = test system: K-562 leukemia
# KM12 colon = test system: KM12 colon
# LOX IMVI melanoma = test system: LOX IMVI melanoma
# M14 melanoma = test system: M14 melanoma
# M19-MEL melanoma = test system: M19-MEL melanoma
# MOLT-4 leukemia = test system: MOLT-4 leukemia
# NCI-H460 lung = test system: NCI-H460 lung
# NCI-H522 lung = test system: NCI-H522 lung
# OVCAR-3 ovarian = test system: OVCAR-3 ovarian
# OVCAR-4 ovarian = test system: OVCAR-4 ovarian
# OVCAR-8 ovarian = test system: OVCAR-8 ovarian
# RPMI-8226 leukemia = test system: RPMI-8226 leukemia
# RXF 393 renal = test system: RXF 393 renal
# SF-268 CNS = test system: SF-268 CNS
# SF-295 CNS = test system: SF-295 CNS
# SF-539 CNS = test system: SF-539 CNS
# SK-MEL-2 melanoma = test system: SK-MEL-2 melanoma
# SK-MEL-28 melanoma = test system: SK-MEL-28 melanoma
# SK-MEL-5 melanoma = test system: SK-MEL-5 melanoma
# SK-OV-3 ovarian = test system: SK-OV-3 ovarian
# SN12C renal = test system: SN12C renal
# SNB-75 CNS = test system: SNB-75 CNS
# SNB-78 CNS = test system: SNB-78 CNS
# SR leukemia = test system: SR leukemia
# SW-620 colon = test system: SW-620 colon
# TK-10 renal = test system: TK-10 renal
# U251 CNS = test system: U251 CNS
# UACC-257 melanoma = test system: UACC-257 melanoma
# UACC-62 melanoma = test system: UACC-62 melanoma
# XF 498 CNS = test system: XF 498 CNS
# HOP-18 NSCLC = test system: HOP-18 NSCLC
# HT29 colon = test system: HT29 colon
# IGROV1 ovarian = test system: IGROV1 ovarian
# KM20L2 colon = test system: KM20L2 colon
# LXFL 529 NSCLC = test system: LXFL 529 NSCLC
# MALME-3M melanoma = test system: MALME-3M melanoma
# NCI-H23 lung = test system: NCI-H23 lung
# SNB-19 CNS = test system: SNB-19 CNS
# UO-31 renal = test system: UO-31 renal
structure (smiles),measurement,setting,value
COc1c(NC(C)=O)cc(C)cc1NC(C)=O,TGI,786-0 renal,> 100 µM
same,TGI,A498 renal,> 100 µM
same,TGI,A549 NSCLC,> 100 µM
same,TGI,ACHN renal,> 100 µM
same,TGI,CAKI-1 renal,> 100 µM
same,TGI,CCRF-CEM leukemia,> 100 µM
same,TGI,COLO 205 colon,> 100 µM
same,TGI,DLD-1 colon,> 100 µM
same,TGI,DMS 114 small cell lung,> 100 µM
same,TGI,DMS 273 small cell lung,> 100 µM
same,TGI,EKVX NSCLC,> 100 µM
same,TGI,HCC-2998 colon,> 100 µM
same,TGI,HCT-116 colon,> 100 µM
same,TGI,HCT-15 colon,> 100 µM
same,TGI,HL-60(TB) leukemia,> 100 µM
same,TGI,HOP-62 NSCLC,> 100 µM
same,TGI,HOP-92 NSCLC,> 100 µM
same,TGI,K-562 leukemia,> 100 µM
same,TGI,KM12 colon,> 100 µM
same,TGI,LOX IMVI melanoma,> 100 µM
same,TGI,M14 melanoma,> 100 µM
same,TGI,M19-MEL melanoma,> 100 µM
same,TGI,MOLT-4 leukemia,> 100 µM
same,TGI,NCI-H460 lung,> 100 µM
same,TGI,NCI-H522 lung,> 100 µM
same,TGI,OVCAR-3 ovarian,> 100 µM
same,TGI,OVCAR-4 ovarian,> 100 µM
same,TGI,OVCAR-8 ovarian,> 100 µM
same,TGI,RPMI-8226 leukemia,> 100 µM
same,TGI,RXF 393 renal,> 100 µM
same,TGI,SF-268 CNS,> 100 µM
same,TGI,SF-295 CNS,> 100 µM
same,TGI,SF-539 CNS,> 100 µM
same,TGI,SK-MEL-2 melanoma,> 100 µM
same,TGI,SK-MEL-28 melanoma,> 100 µM
same,TGI,SK-MEL-5 melanoma,> 100 µM
same,TGI,SK-OV-3 ovarian,> 100 µM
same,TGI,SN12C renal,> 100 µM
same,TGI,SNB-75 CNS,> 100 µM
same,TGI,SNB-78 CNS,> 100 µM
same,TGI,SR leukemia,> 100 µM
same,TGI,SW-620 colon,> 100 µM
same,TGI,TK-10 renal,> 100 µM
same,TGI,U251 CNS,> 100 µM
same,TGI,UACC-257 melanoma,> 100 µM
same,TGI,UACC-62 melanoma,> 100 µM
same,TGI,XF 498 CNS,> 100 µM
CC1(C)CC(=O)C2=C(C1)S/C(=C1/SC3=C(S1)C(=O)CC(C)(C)C3)S2,TGI,786-0 renal,> 251 µM
same,TGI,A498 renal,> 251 µM
same,TGI,A549 NSCLC,> 251 µM
same,TGI,ACHN renal,> 251 µM
same,TGI,CCRF-CEM leukemia,> 251 µM
same,TGI,COLO 205 colon,> 251 µM
same,TGI,DLD-1 colon,> 251 µM
same,TGI,DMS 114 small cell lung,> 251 µM
same,TGI,DMS 273 small cell lung,> 251 µM
same,TGI,EKVX NSCLC,> 251 µM
same,TGI,HCC-2998 colon,> 251 µM
same,TGI,HCT-116 colon,> 251 µM
same,TGI,HCT-15 colon,> 251 µM
same,TGI,HL-60(TB) leukemia,> 251 µM
same,TGI,HOP-18 NSCLC,> 251 µM
same,TGI,HOP-62 NSCLC,> 251 µM
same,TGI,HOP-92 NSCLC,> 251 µM
same,TGI,HT29 colon,> 251 µM
same,TGI,IGROV1 ovarian,> 251 µM
same,TGI,K-562 leukemia,> 251 µM
same,TGI,KM12 colon,> 251 µM
same,TGI,KM20L2 colon,> 251 µM
same,TGI,LOX IMVI melanoma,> 251 µM
same,TGI,LXFL 529 NSCLC,> 251 µM
same,TGI,M14 melanoma,> 251 µM
same,TGI,M19-MEL melanoma,> 251 µM
same,TGI,MALME-3M melanoma,> 251 µM
same,TGI,MOLT-4 leukemia,> 251 µM
same,TGI,NCI-H23 lung,> 251 µM
same,TGI,NCI-H460 lung,> 251 µM
same,TGI,NCI-H522 lung,> 251 µM
same,TGI,OVCAR-3 ovarian,> 251 µM
same,TGI,OVCAR-8 ovarian,> 251 µM
same,TGI,RPMI-8226 leukemia,> 251 µM
same,TGI,RXF 393 renal,> 251 µM
same,TGI,SF-268 CNS,> 251 µM
same,TGI,SF-295 CNS,> 251 µM
same,TGI,SF-539 CNS,> 251 µM
same,TGI,SK-MEL-2 melanoma,> 251 µM
same,TGI,SK-MEL-28 melanoma,> 251 µM
same,TGI,SK-OV-3 ovarian,> 251 µM
same,TGI,SN12C renal,> 251 µM
same,TGI,SNB-19 CNS,> 251 µM
same,TGI,SNB-75 CNS,> 251 µM
same,TGI,SNB-78 CNS,> 251 µM
same,TGI,SR leukemia,> 251 µM
same,TGI,SW-620 colon,> 251 µM
same,TGI,TK-10 renal,> 251 µM
same,TGI,U251 CNS,> 251 µM
same,TGI,UACC-257 melanoma,> 251 µM
same,TGI,UACC-62 melanoma,> 251 µM
same,TGI,UO-31 renal,> 251 µM
same,TGI,XF 498 CNS,> 251 µM

# Source: PubChem BioAssay (NCI)
